The record followed here is the OligoGym collection.

HELM strings list units from the 5' end as sugar, base in round brackets, then linkage (d deoxyribose, r ribose, m 2'-O-methyl, p phosphodiester). Strings are as the collection lists them, not checked against the first reports. ss, as = sense and antisense strand; [lna] = locked nucleic acid (LNA); [hna] = hexitol nucleic acid; [s4r] = 4'-thioribose; [fl2r] = 2'-fluoro
Note: test system not given here.

For this data set the following is noted: siRNA.
For “RNA1{r(A)p.m(C)p.r(A)p.r(G)p.r(A)p.r(A)p.r(A)p.r(G)p.r(A)p.r(G)p.r(U)p.r(U)p.r(C)p.r(G)p.r(A)p.r(G)p.r(G)p.r(A)p.r(G)p.r(T)p.r(T)}|RNA2{r(C)p.r(U)p.r(C)p.r(C)p.r(U)p.r(C)p.r(G)p.r(A)p.r(A)p.r(C)p.r(U)p.r(C)p.r(U)p.r(U)p.r(U)p.r(C)p.m(U)p.r(G)p.r(U)p.r(T)p.r(T)}$$$RNA1{StrandType:ss}|RNA2{StrandType:as}$”, the target mRNA knockdown is 64%.

Regarding “RNA1{r(A)p.r(U)p.m(C)p.r(A)p.m(C)p.r(A)p.r(A)p.r(A)p.r(C)p.r(C)p.r(C)p.r(C)p.m(U)p.r(A)p.r(G)p.r(A)p.r(G)p.r(G)p.r(G)p.r(T)p.r(T)}|RNA2{r(C)p.r(C)p.r(C)p.r(U)p.r(C)p.m(U)p.r(A)p.m(G)p.r(G)p.r(G)p.r(G)p.r(U)p.r(U)p.r(U)p.r(G)p.m(U)p.r(G)p.r(A)p.r(U)p.r(T)p.r(T)}$$$RNA1{StrandType:ss}|RNA2{StrandType:as}$”, the target mRNA knockdown is 27%.

For the substance “RNA1{r(A)p.r(G)p.r(A)p.r(A)p.r(A)p.r(C)p.r(G)p.r(C)p.r(A)p.r(G)p.m(U)p.m(A)p.r(A)p.r(U)p.r(C)p.r(C)p.r(G)p.r(G)p.r(A)p.r(T)p.r(T)}|RNA2{r(U)p.r(C)p.r(C)p.r(G)p.r(G)p.r(A)p.r(U)p.m(U)p.r(A)p.r(C)p.r(U)p.r(G)p.r(C)p.r(G)p.r(U)p.r(U)p.r(U)p.r(C)p.r(U)p.r(T)p.r(T)}$$$RNA1{StrandType:ss}|RNA2{StrandType:as}$”, the target mRNA knockdown came out at 85%.

The substance “RNA1{r(C)p.r(G)p.r(C)p.r(C)p.r(C)p.r(C)p.r(C)p.r(C)p.r(U)p.r(C)p.r(A)p.r(A)p.r(G)p.r(C)p.m(U)p.r(A)p.r(C)p.r(C)p.r(G)p.r(T)p.r(T)}|RNA2{r(C)p.r(G)p.r(G)p.m(U)p.r(A)p.r(G)p.r(C)p.r(U)p.r(U)p.r(G)p.r(A)p.r(G)p.r(G)p.r(G)p.r(G)p.r(G)p.r(G)p.r(C)p.r(G)p.r(T)p.r(T)}$$$RNA1{StrandType:ss}|RNA2{StrandType:as}$” returned a target mRNA knockdown of 76%.

Turning to “RNA1{r(A)p.r(U)p.r(C)p.r(G)p.r(A)p.r(C)p.r(C)p.r(U)p.r(G)p.r(A)p.r(A)p.r(G)p.r(G)p.r(A)p.r(G)p.[fl2r](U)p.r(A)p.r(C)p.r(G)p.r(T)p.r(T)}|RNA2{r(C)p.r(G)p.r(U)p.[fl2r](A)p.r(C)p.r(U)p.r(C)p.r(C)p.r(U)p.r(U)p.r(C)p.r(A)p.r(G)p.r(G)p.r(U)p.r(C)p.r(G)p.r(A)p.r(U)p.r(T)p.r(T)}$$$RNA1{StrandType:ss}|RNA2{StrandType:as}$”, the target mRNA knockdown worked out at 82%.

“RNA1{r(A)p.r(C)p.r(C)p.r(G)p.r(A)p.r(C)p.r(G)p.r(A)p.r(U)p.r(U)p.r(C)p.r(U)p.r(U)p.r(C)p.r(U)p.r(A)p.r(C)p.r(U)p.r(C)p.r(T)p.r(T)}|RNA2{r(G)p.r(A)p.r(G)p.m(U)p.r(A)p.r(G)p.r(A)p.r(A)p.r(G)p.r(A)p.r(A)p.r(U)p.r(C)p.r(G)p.r(U)p.r(C)p.r(G)p.r(G)p.r(U)p.r(T)p.r(T)}$$$RNA1{StrandType:ss}|RNA2{StrandType:as}$” yielded a target mRNA knockdown of 68%.

For “RNA1{r(A)p.r(A)p.r(G)p.r(G)p.r(A)p.r(C)p.r(C)p.[fl2r](U)p.r(A)p.r(G)p.r(A)p.r(G)p.r(G)p.r(A)p.r(G)p.r(U)p.r(C)p.r(A)p.r(C)p.r(T)p.r(T)}|RNA2{r(G)p.r(U)p.r(G)p.r(A)p.r(C)p.r(U)p.r(C)p.r(C)p.r(U)p.r(C)p.[fl2r](U)p.r(A)p.r(G)p.r(G)p.r(U)p.r(C)p.r(C)p.r(U)p.r(U)p.r(T)p.r(T)}$$$RNA1{StrandType:ss}|RNA2{StrandType:as}$”, the target mRNA knockdown is 88%.

On to “RNA1{r(A)p.r(G)p.r(C)p.r(C)p.r(C)p.r(A)p.r(G)p.r(A)p.[fl2r](U)p.r(A)p.r(G)p.r(C)p.r(U)p.r(C)p.r(U)p.r(U)p.r(C)p.r(A)p.r(G)p.r(T)p.r(T)}|RNA2{r(C)p.r(U)p.r(G)p.r(A)p.r(A)p.r(G)p.r(A)p.r(G)p.r(C)p.[fl2r](U)p.r(A)p.r(U)p.r(C)p.r(U)p.r(G)p.r(G)p.r(G)p.r(C)p.r(U)p.r(T)p.r(T)}$$$RNA1{StrandType:ss}|RNA2{StrandType:as}$”, for which the target mRNA knockdown was 69%.

“RNA1{r(C)p.[fl2r](U)p.r(A)p.r(G)p.r(A)p.r(G)p.r(G)p.r(A)p.r(U)p.r(C)p.r(U)p.r(U)p.r(G)p.r(A)p.r(A)p.r(G)p.r(A)p.r(C)p.r(C)p.r(T)p.r(T)}|RNA2{r(G)p.r(G)p.r(U)p.r(C)p.r(U)p.r(U)p.r(C)p.r(A)p.r(A)p.r(G)p.r(A)p.r(U)p.r(C)p.r(C)p.r(U)p.r(C)p.r(U)p.r(A)p.r(G)p.r(T)p.r(T)}$$$RNA1{StrandType:ss}|RNA2{StrandType:as}$”: the target mRNA knockdown amounted to 81%.

Turning to “RNA1{r(G)p.r(G)p.r(G)p.r(A)p.r(A)p.r(A)p.r(C)p.r(U)p.r(G)p.r(A)p.r(A)p.r(A)p.r(G)p.r(G)p.r(C)p.r(U)p.r(A)p.r(U)p.r(G)p.r(T)p.r(T)}|RNA2{[fl2r](C)p.r(A)p.[fl2r](U)p.r(A)p.r(G)p.[fl2r](C)p.[fl2r](C)p.[fl2r](U)p.[fl2r](U)p.[fl2r](U)p.[fl2r](C)p.r(A)p.r(G)p.[fl2r](U)p.[fl2r](U)p.[fl2r](U)p.[fl2r](C)p.[fl2r](C)p.[fl2r](C)p.r(T)p.r(T)}$$$RNA1{StrandType:ss}|RNA2{StrandType:as}$”, the target mRNA knockdown turned out to be 6%.

The substance “RNA1{r(C)p.r(G)p.r(U)p.r(A)p.r(C)p.r(G)p.r(C)p.r(G)p.r(G)p.r(A)p.r(A)p.r(U)p.r(A)p.r(C)p.r(U)p.[s4r](U)p.[s4r](C)p.[s4r](G)p.[s4r](A)p.r(T)p.r(T)}|RNA2{[s4r](U)p.[s4r](C)p.[s4r](G)p.[s4r](A)p.r(A)p.r(G)p.r(U)p.r(A)p.r(U)p.r(U)p.r(C)p.r(C)p.r(G)p.r(C)p.r(G)p.r(U)p.r(A)p.r(C)p.r(G)p.r(T)p.r(T)}$$$RNA1{StrandType:ss}|RNA2{StrandType:as}$” gave a target mRNA knockdown of 35.1%.

“RNA1{r(A)p.r(C)p.r(G)p.r(U)p.r(C)p.r(A)p.r(C)p.r(C)p.r(G)p.r(A)p.r(G)p.r(G)p.r(A)p.r(G)p.r(A)p.r(A)p.r(G)p.m(U)p.r(A)p.r(T)p.r(T)}|RNA2{r(U)p.r(A)p.r(C)p.r(U)p.r(U)p.r(C)p.r(U)p.r(C)p.r(C)p.r(U)p.r(C)p.r(G)p.r(G)p.r(U)p.r(G)p.r(A)p.r(C)p.r(G)p.r(U)p.r(T)p.r(T)}$$$RNA1{StrandType:ss}|RNA2{StrandType:as}$” returned a target mRNA knockdown of 69%.

Substance “RNA1{r(G)p.r(A)p.r(C)p.r(G)p.[hna](U)p.r(A)p.r(A)p.[hna](A)p.r(C)p.r(G)p.[hna](G)p.r(C)p.r(C)p.[hna](A)p.r(C)p.r(A)p.r(A)p.r(G)p.[hna](U)p.[hna](U)p.d(T)}|RNA2{r(A)p.r(C)p.r(U)p.r(U)p.r(G)p.r(U)p.r(G)p.r(G)p.r(C)p.r(C)p.r(G)p.r(U)p.r(U)p.r(U)p.r(A)p.r(C)p.r(G)p.[hna](U)p.[hna](C)p.[hna](G)p.d(T)}$$$RNA1{StrandType:ss}|RNA2{StrandType:as}$” gave a target mRNA knockdown of 74.2%.

For “RNA1{m(G)p.r(G)p.m(A)p.r(A)p.m(G)p.r(U)p.m(C)p.r(C)p.m(A)p.r(C)p.m(C)p.r(U)p.m(U)p.r(C)p.m(U)p.r(C)p.m(C)p.r(G)p.m(A)p.r(T)p.r(T)}|RNA2{m(U)p.r(C)p.r(G)p.r(G)p.r(A)p.r(G)p.r(A)p.r(A)p.r(G)p.r(G)p.m(U)p.r(G)p.r(G)p.r(A)p.r(C)p.m(U)p.m(U)p.r(C)p.r(C)p.r(T)p.r(T)}$$$RNA1{StrandType:ss}|RNA2{StrandType:as}$”, the target mRNA knockdown was 27%.

Consider “RNA1{r(G)p.r(A)p.r(C)p.r(G)p.[hna](U)p.r(A)p.r(A)p.[hna](A)p.r(C)p.r(G)p.[hna](G)p.r(C)p.r(C)p.[hna](A)p.r(C)p.r(A)p.r(A)p.r(G)p.[hna](U)p.[hna](U)p.d(T)}|RNA2{[fl2r](A)p.m(C)p.[fl2r](U)p.m(U)p.[fl2r](G)p.m(U)p.[fl2r](G)p.m(G)p.[fl2r](C)p.m(C)p.[fl2r](G)p.m(U)p.[fl2r](U)p.m(U)p.[fl2r](A)p.m(C)p.[fl2r](G)p.m(U)p.[fl2r](C)p.m(G)p.[fl2r](C)}$$$RNA1{StrandType:ss}|RNA2{StrandType:as}$”, for which the target mRNA knockdown is 23.3%.

“RNA1{r(U)p.m(U)p.m(A)p.r(A)p.r(A)p.r(G)p.m(G)p.r(G)p.r(C)p.r(G)p.r(A)p.r(G)p.r(A)p.r(A)p.r(G)p.r(A)p.r(C)p.r(C)p.r(G)p.r(T)p.r(T)}|RNA2{r(C)p.r(G)p.r(G)p.r(U)p.r(C)p.r(U)p.r(U)p.r(C)p.r(U)p.r(C)p.r(G)p.r(C)p.r(C)p.r(C)p.r(U)p.r(U)p.m(U)p.r(A)p.r(A)p.r(T)p.r(T)}$$$RNA1{StrandType:ss}|RNA2{StrandType:as}$” had a target mRNA knockdown of 85%.

In the case of “RNA1{[lna](C)p.r(U)p.r(A)p.r(A)p.r(G)p.r(G)p.r(A)p.r(C)p.r(C)p.r(U)p.r(A)p.r(A)p.r(C)p.r(A)p.r(A)p.r(A)p.r(G)p.r(U)p.r(U)p.r(U)p.r(U)}|RNA2{r(A)p.r(A)p.r(C)p.r(U)p.r(U)p.r(U)p.r(G)p.r(U)p.r(U)p.r(A)p.r(G)p.r(G)p.r(U)p.r(C)p.r(C)p.r(U)p.r(U)p.r(A)p.r(G)p.r(U)p.r(U)}$$$RNA1{StrandType:ss}|RNA2{StrandType:as}$”, the target mRNA knockdown turned out to be 64%.

As to “RNA1{m(U)p.r(A)p.m(A)p.r(A)p.m(G)p.r(C)p.m(U)p.r(G)p.m(G)p.r(A)p.m(A)p.r(A)p.m(G)p.r(G)p.m(G)p.r(A)p.m(C)p.r(G)p.m(G)p.r(T)p.r(T)}|RNA2{r(C)p.r(C)p.r(G)p.r(U)p.r(C)p.r(C)p.r(C)p.r(U)p.r(U)p.r(U)p.r(C)p.r(C)p.m(A)p.r(G)p.r(C)p.r(U)p.r(U)p.r(U)p.m(A)p.r(T)p.r(T)}$$$RNA1{StrandType:ss}|RNA2{StrandType:as}$”, the target mRNA knockdown stood at 29%.

“RNA1{r(C)p.[fl2r](U)p.r(A)p.r(A)p.r(G)p.r(C)p.r(C)p.r(U)p.r(G)p.r(U)p.r(U)p.r(U)p.r(C)p.r(U)p.r(U)p.r(C)p.r(C)p.r(U)p.r(C)p.r(T)p.r(T)}|RNA2{r(G)p.r(A)p.r(G)p.r(G)p.r(A)p.r(A)p.r(G)p.r(A)p.r(A)p.r(A)p.r(C)p.r(A)p.r(G)p.r(G)p.r(C)p.r(U)p.r(U)p.r(A)p.r(G)p.r(T)p.r(T)}$$$RNA1{StrandType:ss}|RNA2{StrandType:as}$” yielded a target mRNA knockdown of 82%.
